# Patent US8236963B2, “Tricyclic spiro derivatives as CRTH2 modulators” (Merck Serono SA, priority 2005, dated 2012)
# Target: T1, CRTH2 (Homo sapiens, UniProt Q9Y5Y4)
# T1 sequence (Q9Y5Y4 1-395): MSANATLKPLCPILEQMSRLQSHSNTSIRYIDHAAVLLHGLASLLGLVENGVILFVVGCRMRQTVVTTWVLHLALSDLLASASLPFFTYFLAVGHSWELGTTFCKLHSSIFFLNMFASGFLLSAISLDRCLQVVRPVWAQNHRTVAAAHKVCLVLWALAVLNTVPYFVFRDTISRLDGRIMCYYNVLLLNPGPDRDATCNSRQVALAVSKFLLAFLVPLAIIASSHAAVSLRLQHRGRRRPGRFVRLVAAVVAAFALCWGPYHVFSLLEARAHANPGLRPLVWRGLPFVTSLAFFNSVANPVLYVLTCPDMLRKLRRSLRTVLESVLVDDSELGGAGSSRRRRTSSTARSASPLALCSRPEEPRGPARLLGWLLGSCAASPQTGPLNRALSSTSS
# Assay: Determination of Ki (radioligand binding assay, equilibrium competition against [3H]PGD2)
# Set-up: expressed in transfected cells; host or cells: HEK293 (EBNA) cells, membrane preparation
# Conditions: average of at least three independent dose response experiments
# Description: The inhibitory activity can be investigated by a radioligand binding assay (Sawyer et al., Br. J. Pharmocol 2002, 137, 1163-72). The radioligand binding assay was performed at room temperature in binding buffer (10 mM HEPES/KOH pH […], with protease inhibitor cocktail tablets), containing 1.5 nM [^3H]PGD2 (Amersham, 156 Cie/mmol), and 10 μg of hCRTH2 HEK293 (EBNA) cell membrane protein in a final volume of 100 μl in 96 well plates (Corning, USA). Non-specific binding was determined in the presence of 1 μM PGD2 (Cayman, USA). Competing spiro-indolinones were diluted in dimethylsulphoxide so that the total volume of dimethylsulfoxide was kept constant at 1% dimethylsulphoxide (Me2SO) Serial dilutions of 100 μM and […] were prepared. 10 μl each of these spiro-indolinone stock solutions were added. Incubation (60 min at room temperature) was terminated by rapid filtration through 96 wells hydrophobic GF/C Unifilter plates (Whatman, USA). Filters were washed twice with 250 μl of Tris-HCl pH 7.4, 10 mM MnCl2, and residual radioligand bound to the filters was mixed to 100 μl of liquid scintillation cocktail (Optiphase Supermix, Perkin Elmer, USA) and binding activity was determined by counting residual radioligand using a 1450 Micro-beta scintillation counter (Wallac, UK). The following representative compounds were tested. All inhibited the binding of PGD2 to CRTH2 by more than 70%. • (1′-benzyl-5-chloro-2,2′,5′-trioxospiro[indole-3,3′-pyrrolidin]-1(2H)-yl)acetic acid • (1′-benzyl-5-fluoro-2,2′,5′-trioxospiro[indole-3,3′-pyrrolidin]-1(2H)-yl)acetic acid • 4-(1′-allyl-5-chloro-2,2′,5′-trioxospiro[indole-3,3′-pyrrolidin]-1(2H)-yl)butanoic acid • [5-chloro-1′-(2-methoxyethyl)-2,2′,5′-trioxospiro[indole-3,3′-pyrrolidin]-1(2H)-yl]acetic acid • 4-(1′-benzyl-5-chloro-2,2′,5′-trioxospiro[indole-3,3′-pyrrolidin]-1(2H)-yl)butanoic acid • (1′-benzyl-5-methoxy-2,2′,5′-trioxospiro[indole-3,3′-pyrrolidin]-1(2H)-yl)acetic acid • [5-fluoro-1′-[(2-methoxyethoxy)methyl]-2,2′,5′-trioxospiro[indole-3,3′-pyrrolidin]-1(2H)-yl]acetic acid • 4-(1′-allyl-5-fluoro-2,2′,5′-trioxospiro[indole-3,3′-pyrrolidin]-1(2H)-yl)butanoic acid • 4-(1′-benzyl-5-fluoro-2,2′,5′-trioxospiro[indole-3,3′-pyrrolidin]-1(2H)-yl)butanoic acid
# Ki values were determined by equilibrium competition binding experiments against [^3H]PGD2. Ki values were calculated from the formula below and represent the average of at least three independent dose response experiments. The Ki values give the ligand concentrations necessary to inhibit 50% of the binding of [^3H]PGD2 to CRTH2. Ki=IC50/(1+[Concentration of Ligand]/Kd)]
# All experiments were performed in 96 well plates, in a final volume of 100 μl according to the above described filtration assay. The concentration of membranes and 3 [H]PGD2, as well as the positive and negative controls were identical to the conditions described above.
row,Ki,Compound
1,705 nM,"O=C(O)CN1C(=O)C2(CC(=O)N(Cc3cn4ccccc4n3)C2=O)c2cc(Cl)ccc21 (stereo not shown) [Compound 24, [5-chloro-1′-(imidazo[1,2-a]pyridin-2-ylmethyl)-2,2′,5′-trioxospiro[indole-3,3′-pyrrolidin]-1(2H)-yl]acetic acid]"
2,100 nM,"O=C(O)CN1C(=O)C2(CC(=O)N(Cc3ccc(Cl)c(Cl)c3)C2=O)c2cc(Cl)ccc21 (stereo not shown) [Compound 6, [5-chloro-1′-(3,4-dichlorobenzyl)-2,2′,5′-trioxospiro[indole-3,3′-pyrrolidin]-1(2H)-yl]acetic acid]"
3,1130 nM,"O=C(O)CN1C(=O)C2(CC(=O)N(CCOCc3ccccc3)C2=O)c2cc(Cl)ccc21 (stereo not shown) [Compound 29, [1′-[2-(benzyloxy)ethyl]-5-chloro-2,2′,5′-trioxospiro[indole-3,3′-pyrrolidin]-1(2H)-yl]acetic acid]"
4,148 nM,"O=C(O)CN1C(=O)C2(CC(=O)N(Cc3cccc(Oc4ccccc4)c3)C2=O)c2cc(Cl)ccc21 (stereo not shown) [Compound 10, [5-chloro-2,2′,5′-trioxo-1′-(3-phenoxybenzyl)spiro[indole-3,3′-pyrrolidin]-1(2H)-yl]acetic acid]"
5,73 nM,"O=C(O)CN1C(=O)C2(CC(=O)N(Cc3cccc(Cl)c3)C2=O)c2cc(Cl)ccc21 (stereo not shown) [Compound 5, [5-chloro-1′-(3-chlorobenzyl)-2,2′,5′-trioxospiro[indole-3,3′-pyrrolidin]-1(2H)-yl]acetic acid]"
6,8.4 nM,"O=C(O)CN1C(=O)[C@]2(CC(=O)N(Cc3ccccc3F)C2=O)c2cc(Cl)ccc21 [Compound 110, (3S)-[5-chloro-1′-(2-fluorobenzyl)-2,2′,5′-trioxospiro[indole-3,3′-pyrrolidin]-1(2H)-yl]acetic acid]"
7,681 nM,"O=C(O)CCCN1C(=O)C2(CC(=O)N(Cc3ccc(C(F)(F)F)cc3)C2=O)c2cc(Cl)ccc21 (stereo not shown) [Compound 35, 4-[5-chloro-2,2′,5′-trioxo-1′-[4-(trifluoromethyl)benzyl]spiro[indole-3,3′-pyrrolidin]-1(2H)-yl]butanoic acid]"
8,1030 nM,"CCOCCN1C(=O)CC2(C1=O)C(=O)N(CC(=O)O)c1ccc(Cl)cc12 (stereo not shown) [Compound 28, [5-chloro-1′-(2-ethoxyethyl)-2,2′,5′-trioxospiro[indole-3,3′-pyrrolidin]-1(2H)-yl]acetic acid]"
9,39 nM,"Cc1nc(CN2C(=O)CC3(C2=O)C(=O)N(CC(=O)O)c2ccc(Cl)cc23)cs1 (stereo not shown) [Compound 1, [5-chloro-1′-[(2-methyl-1,3-thiazol-4-yl)methyl]-2,2′,5′-trioxospiro[indole-3,3′-pyrrolidin]-1(2H)-yl]acetic acid]"
10,510 nM,"COc1c(C)cnc(CN2C(=O)CC3(C2=O)C(=O)N(CC(=O)O)c2ccc(Cl)cc23)c1C (stereo not shown) [Compound 75, [5-chloro-1′-[(4-methoxy-3,5-dimethylpyridin-2-yl)methyl]-2,2′,5′-trioxospiro[indole-3,3′-pyrrolidin]-1(2H)-yl]acetic acid]"
11,768 nM,"O=C(O)CN1C(=O)C2(CC(=O)N(C/C=C/c3ccccc3)C2=O)c2cc(Cl)ccc21 (stereo not shown) [Compound 25, [5-chloro-2,2′,5′-trioxo-1′-[(2E)-3-phenylprop-2-en-1-yl]spiro[indole-3,3′-pyrrolidin]-1(2H)-yl]acetic acid]"
12,170 nM,"O=C(O)CN1C(=O)C2(CC(=O)N(Cc3ccccn3)C2=O)c2cc(Cl)ccc21 (stereo not shown) [Compound 17, [5-chloro-2,2′,5′-trioxo-1′-(pyridin-2-ylmethyl)spiro[indole-3,3′-pyrrolidin]-1(2H)-yl]acetic acid]"
13,93 nM,"O=C(O)CN1C(=O)C2(CC(=O)N(Cc3ccc4ccccc4n3)C2=O)c2cc(Cl)ccc21 (stereo not shown) [Compound 3, [5-chloro-2,2′,5′-trioxo-1′-(quinolin-2-ylmethyl)spiro[indole-3,3′-pyrrolidin]-1(2H)-yl]acetic acid]"
